# How the values were obtained:
# Assay in all cases: KINOMEscan
# Assay type in all cases: binding
# Conditions in all cases: read-out: Remaining enzyme activity
# ABL1(Y253F) = target: T1, ABL1(Y253F) (Homo sapiens, UniProt P00519, Y253F)
# T1 construct: purchased Ambit (DiscoverX) KINOMEscan; Cerep
# In short: (§1)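 qPCR of a DNA tag reports how much kinase stays bound to ligand-coated beads in the presence of 10 μM SC81458, diluted from a DMSO stock. Kinase sources were T7 phage lysates from E. coli or HEK-293-expressed protein tagged with DNA.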
# ALK = target: T2, ALK (Homo sapiens, UniProt Q9UM73)
# T2 construct: purchased Ambit (DiscoverX) KINOMEscan; Cerep
# In short: as §1
# ARK5 = target: T3, ARK5 (Homo sapiens, UniProt O60285)
# T3 construct: purchased Ambit (DiscoverX) KINOMEscan; Cerep
# In short: as §1
# ASK1 = target: T4, ASK1 (Homo sapiens, UniProt Q99683)
# T4 construct: purchased Ambit (DiscoverX) KINOMEscan; Cerep
# In short: as §1
# BLK = target: T5, BLK (Homo sapiens, UniProt P51451)
# T5 construct: purchased Ambit (DiscoverX) KINOMEscan; Cerep
# In short: as §1
# BMPR1b = target: T6, BMPR1b (Homo sapiens, UniProt O00238)
# T6 construct: purchased Ambit (DiscoverX) KINOMEscan; Cerep
# In short: as §1
# BRK = target: T7, BRK (Homo sapiens, UniProt Q13882)
# T7 construct: purchased Ambit (DiscoverX) KINOMEscan; Cerep
# In short: as §1
# BRSK2 = target: T8, BRSK2 (Homo sapiens, UniProt Q8IWQ3)
# T8 construct: purchased Ambit (DiscoverX) KINOMEscan; Cerep
# In short: as §1
# DAPK3 = target: T9, DAPK3 (Homo sapiens, UniProt O43293)
# T9 construct: purchased Ambit (DiscoverX) KINOMEscan; Cerep
# In short: as §1
# [1] = target: T10, EGFR(L747-E749del, A750P) (Homo sapiens, UniProt P00533, A750P/DEL747-749)
# T10 construct: purchased Ambit (DiscoverX) KINOMEscan; Cerep
# In short: as §1
# EPHA2 = target: T11, EPHA2 (Homo sapiens, UniProt P29317)
# T11 construct: purchased Ambit (DiscoverX) KINOMEscan; Cerep
# In short: as §1
# FLT3(N841I) = target: T12, FLT3(N841I) (Homo sapiens, UniProt P36888, N841I)
# T12 construct: purchased Ambit (DiscoverX) KINOMEscan; Cerep
# In short: as §1
# FRK = target: T13, FRK (Homo sapiens, UniProt P42685)
# T13 construct: purchased Ambit (DiscoverX) KINOMEscan; Cerep
# In short: as §1
# IKK-epsilon = target: T14, IKK-epsilon (Homo sapiens, UniProt Q14164)
# T14 construct: purchased Ambit (DiscoverX) KINOMEscan; Cerep
# In short: as §1
# KIT(L576P) = target: T15, KIT(L576P) (Homo sapiens, UniProt P10721, L576P)
# T15 construct: purchased Ambit (DiscoverX) KINOMEscan; Cerep
# In short: as §1
# LATS1 = target: T16, LATS1 (Homo sapiens, UniProt O95835)
# T16 construct: purchased Ambit (DiscoverX) KINOMEscan; Cerep
# In short: as §1
# LCK = target: T17, LCK (Homo sapiens, UniProt P06239)
# T17 construct: purchased Ambit (DiscoverX) KINOMEscan; Cerep
# In short: as §1
# MAP4K3 = target: T18, MAP4K3 (Homo sapiens, UniProt Q8IVH8)
# T18 construct: purchased Ambit (DiscoverX) KINOMEscan; Cerep
# In short: as §1
# MAP4K5 = target: T19, MAP4K5 (Homo sapiens, UniProt Q9Y4K4)
# T19 construct: purchased Ambit (DiscoverX) KINOMEscan; Cerep
# In short: as §1
# MEK6 = target: T20, MEK6 (Homo sapiens, UniProt P52564)
# T20 construct: purchased Ambit (DiscoverX) KINOMEscan; Cerep
# In short: as §1
# MET(Y1235D) = target: T21, MET(Y1235D) (Homo sapiens, UniProt P08581, Y1235D)
# T21 construct: purchased Ambit (DiscoverX) KINOMEscan; Cerep
# In short: as §1
# MLCK = target: T22, MLCK (Homo sapiens, UniProt Q32MK0)
# T22 construct: purchased Ambit (DiscoverX) KINOMEscan; Cerep
# In short: as §1
# PIK3CA(E545A) = target: T23, PIK3CA(E545A) (Homo sapiens, UniProt P42336, E545A)
# T23 construct: purchased Ambit (DiscoverX) KINOMEscan; Cerep
# In short: as §1
# PIK3CA(M1043I) = target: T24, PIK3CA(M1043I) (Homo sapiens, UniProt P42336, M1043I)
# T24 construct: purchased Ambit (DiscoverX) KINOMEscan; Cerep
# In short: as §1
# PRKG1 = target: T25, PRKG1 (Homo sapiens, UniProt Q13976)
# T25 construct: purchased Ambit (DiscoverX) KINOMEscan; Cerep
# In short: as §1
# RET = target: T26, RET (Homo sapiens, UniProt P07949)
# T26 construct: purchased Ambit (DiscoverX) KINOMEscan; Cerep
# In short: as §1
# RIOK1 = target: T27, RIOK1 (Homo sapiens, UniProt Q9BRS2)
# T27 construct: purchased Ambit (DiscoverX) KINOMEscan; Cerep
# In short: as §1
# RIOK2 = target: T28, RIOK2 (Homo sapiens, UniProt Q9BVS4)
# T28 construct: purchased Ambit (DiscoverX) KINOMEscan; Cerep
# In short: as §1
# SNARK = target: T29, SNARK (Homo sapiens, UniProt Q9H093)
# T29 construct: purchased Ambit (DiscoverX) KINOMEscan; Cerep
# In short: as §1
# TAOK3 = target: T30, TAOK3 (Homo sapiens, UniProt Q9H2K8)
# T30 construct: purchased Ambit (DiscoverX) KINOMEscan; Cerep
# In short: as §1
# TRKa = target: T31, TRKa (Homo sapiens, UniProt P04629)
# T31 construct: purchased Ambit (DiscoverX) KINOMEscan; Cerep
# In short: as §1
# TYK2(JHdomain-catalytic) = target: T32, TYK2(JHdomain-catalytic) (Homo sapiens, UniProt P29597)
# T32 construct: TYK2(JHdomain-catalytic); purchased Ambit (DiscoverX) KINOMEscan; Cerep
# In short: as §1
# YSK4 = target: T33, YSK4 (Homo sapiens, UniProt Q56UN5)
# T33 construct: purchased Ambit (DiscoverX) KINOMEscan; Cerep
# In short: as §1
# T4 sequence (Q99683 whole entry): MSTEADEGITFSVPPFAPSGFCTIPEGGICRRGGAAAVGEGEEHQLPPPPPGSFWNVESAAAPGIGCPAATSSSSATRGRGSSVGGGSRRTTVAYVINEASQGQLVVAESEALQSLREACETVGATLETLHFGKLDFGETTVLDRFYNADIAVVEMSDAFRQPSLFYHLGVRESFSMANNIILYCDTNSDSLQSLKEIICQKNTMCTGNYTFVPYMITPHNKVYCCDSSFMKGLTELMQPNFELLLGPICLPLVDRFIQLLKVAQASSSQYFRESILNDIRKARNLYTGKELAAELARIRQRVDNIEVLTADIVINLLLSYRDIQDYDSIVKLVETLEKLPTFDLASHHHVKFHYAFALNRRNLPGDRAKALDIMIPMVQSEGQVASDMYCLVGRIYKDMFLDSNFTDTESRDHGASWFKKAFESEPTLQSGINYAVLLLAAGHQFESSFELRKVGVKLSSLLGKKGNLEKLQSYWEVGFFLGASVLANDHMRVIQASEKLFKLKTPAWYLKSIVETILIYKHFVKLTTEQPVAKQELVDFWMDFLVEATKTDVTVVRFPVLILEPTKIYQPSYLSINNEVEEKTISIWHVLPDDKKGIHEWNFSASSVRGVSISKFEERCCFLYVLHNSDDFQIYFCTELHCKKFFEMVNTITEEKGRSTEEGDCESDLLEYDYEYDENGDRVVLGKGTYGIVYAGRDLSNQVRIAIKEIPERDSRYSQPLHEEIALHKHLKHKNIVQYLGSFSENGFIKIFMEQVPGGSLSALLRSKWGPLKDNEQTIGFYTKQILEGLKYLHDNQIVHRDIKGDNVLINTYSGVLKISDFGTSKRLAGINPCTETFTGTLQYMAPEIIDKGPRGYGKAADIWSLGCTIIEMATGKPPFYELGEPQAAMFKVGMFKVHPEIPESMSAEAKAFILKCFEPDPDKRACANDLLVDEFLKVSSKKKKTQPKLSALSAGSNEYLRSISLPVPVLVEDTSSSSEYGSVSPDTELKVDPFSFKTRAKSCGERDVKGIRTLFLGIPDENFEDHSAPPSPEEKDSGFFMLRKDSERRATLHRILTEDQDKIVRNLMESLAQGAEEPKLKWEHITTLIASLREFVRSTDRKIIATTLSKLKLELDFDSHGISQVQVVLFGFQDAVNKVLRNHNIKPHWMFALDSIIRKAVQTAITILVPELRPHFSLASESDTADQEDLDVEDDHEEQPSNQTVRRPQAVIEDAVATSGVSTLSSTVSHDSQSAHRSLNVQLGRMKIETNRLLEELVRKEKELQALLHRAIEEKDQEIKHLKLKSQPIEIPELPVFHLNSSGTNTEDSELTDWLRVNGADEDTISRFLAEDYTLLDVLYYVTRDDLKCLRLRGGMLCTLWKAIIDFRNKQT
# T22 sequence (Q32MK0 whole entry): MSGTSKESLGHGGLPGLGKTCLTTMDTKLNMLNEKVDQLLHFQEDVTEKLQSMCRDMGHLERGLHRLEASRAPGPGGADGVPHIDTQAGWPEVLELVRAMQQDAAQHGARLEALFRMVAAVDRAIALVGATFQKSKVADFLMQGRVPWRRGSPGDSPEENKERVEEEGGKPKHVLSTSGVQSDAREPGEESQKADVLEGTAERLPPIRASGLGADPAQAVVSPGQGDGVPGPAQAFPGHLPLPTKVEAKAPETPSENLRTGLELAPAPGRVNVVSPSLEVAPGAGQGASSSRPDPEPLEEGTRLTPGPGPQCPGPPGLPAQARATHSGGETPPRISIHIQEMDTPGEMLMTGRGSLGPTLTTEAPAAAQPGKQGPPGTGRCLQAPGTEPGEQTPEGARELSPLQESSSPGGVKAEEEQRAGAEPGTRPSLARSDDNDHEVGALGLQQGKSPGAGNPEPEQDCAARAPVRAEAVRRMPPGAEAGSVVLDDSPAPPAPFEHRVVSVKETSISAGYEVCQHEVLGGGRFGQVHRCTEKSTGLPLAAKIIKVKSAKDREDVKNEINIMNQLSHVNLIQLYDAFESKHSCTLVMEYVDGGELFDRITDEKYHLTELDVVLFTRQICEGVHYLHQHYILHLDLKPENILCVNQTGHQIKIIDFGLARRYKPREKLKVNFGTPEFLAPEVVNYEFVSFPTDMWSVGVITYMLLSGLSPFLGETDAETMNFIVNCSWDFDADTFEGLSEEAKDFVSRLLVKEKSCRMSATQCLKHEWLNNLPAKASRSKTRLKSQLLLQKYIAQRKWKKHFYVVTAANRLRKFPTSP
# T27 sequence (Q9BRS2 whole entry): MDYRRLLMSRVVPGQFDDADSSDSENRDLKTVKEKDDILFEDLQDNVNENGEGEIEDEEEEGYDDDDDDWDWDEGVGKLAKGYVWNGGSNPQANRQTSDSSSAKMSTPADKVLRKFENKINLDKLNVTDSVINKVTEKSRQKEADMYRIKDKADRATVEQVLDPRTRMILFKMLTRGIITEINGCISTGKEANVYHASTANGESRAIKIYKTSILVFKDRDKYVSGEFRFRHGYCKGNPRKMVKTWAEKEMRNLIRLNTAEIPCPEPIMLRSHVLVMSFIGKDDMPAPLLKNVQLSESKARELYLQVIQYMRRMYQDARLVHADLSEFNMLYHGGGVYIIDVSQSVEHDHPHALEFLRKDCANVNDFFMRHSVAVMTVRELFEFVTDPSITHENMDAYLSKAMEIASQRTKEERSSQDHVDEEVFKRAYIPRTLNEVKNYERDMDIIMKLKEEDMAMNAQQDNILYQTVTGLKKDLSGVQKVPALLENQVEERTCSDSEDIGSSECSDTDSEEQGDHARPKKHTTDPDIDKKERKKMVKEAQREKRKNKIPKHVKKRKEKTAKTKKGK
# T17 sequence (P06239 whole entry): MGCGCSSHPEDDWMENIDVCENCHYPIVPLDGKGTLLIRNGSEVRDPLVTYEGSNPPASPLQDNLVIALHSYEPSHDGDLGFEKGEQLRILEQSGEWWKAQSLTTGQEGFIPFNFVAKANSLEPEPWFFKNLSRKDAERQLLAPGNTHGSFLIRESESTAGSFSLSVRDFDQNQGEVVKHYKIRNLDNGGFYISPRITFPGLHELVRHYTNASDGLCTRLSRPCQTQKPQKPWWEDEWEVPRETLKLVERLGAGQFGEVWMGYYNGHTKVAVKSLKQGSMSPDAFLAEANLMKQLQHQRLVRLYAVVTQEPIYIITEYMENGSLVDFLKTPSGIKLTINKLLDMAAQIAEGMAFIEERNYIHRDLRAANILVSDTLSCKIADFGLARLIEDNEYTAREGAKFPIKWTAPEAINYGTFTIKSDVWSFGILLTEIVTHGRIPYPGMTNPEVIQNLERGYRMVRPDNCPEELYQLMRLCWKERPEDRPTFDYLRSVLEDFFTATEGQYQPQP
# T6 sequence (O00238 14-502): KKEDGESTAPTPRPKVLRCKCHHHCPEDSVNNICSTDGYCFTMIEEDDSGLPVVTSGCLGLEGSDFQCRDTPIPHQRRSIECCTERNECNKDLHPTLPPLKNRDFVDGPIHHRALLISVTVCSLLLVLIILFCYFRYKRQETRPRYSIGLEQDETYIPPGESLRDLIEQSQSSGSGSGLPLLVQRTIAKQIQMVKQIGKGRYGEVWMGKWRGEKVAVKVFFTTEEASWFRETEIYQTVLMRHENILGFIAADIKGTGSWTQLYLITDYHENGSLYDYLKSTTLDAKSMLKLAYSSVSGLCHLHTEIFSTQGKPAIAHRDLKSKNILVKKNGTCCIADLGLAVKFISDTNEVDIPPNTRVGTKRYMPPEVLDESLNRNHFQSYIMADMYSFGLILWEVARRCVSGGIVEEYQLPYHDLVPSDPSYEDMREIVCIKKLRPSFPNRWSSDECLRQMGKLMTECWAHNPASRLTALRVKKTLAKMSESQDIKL
# T11 sequence (P29317 24-976): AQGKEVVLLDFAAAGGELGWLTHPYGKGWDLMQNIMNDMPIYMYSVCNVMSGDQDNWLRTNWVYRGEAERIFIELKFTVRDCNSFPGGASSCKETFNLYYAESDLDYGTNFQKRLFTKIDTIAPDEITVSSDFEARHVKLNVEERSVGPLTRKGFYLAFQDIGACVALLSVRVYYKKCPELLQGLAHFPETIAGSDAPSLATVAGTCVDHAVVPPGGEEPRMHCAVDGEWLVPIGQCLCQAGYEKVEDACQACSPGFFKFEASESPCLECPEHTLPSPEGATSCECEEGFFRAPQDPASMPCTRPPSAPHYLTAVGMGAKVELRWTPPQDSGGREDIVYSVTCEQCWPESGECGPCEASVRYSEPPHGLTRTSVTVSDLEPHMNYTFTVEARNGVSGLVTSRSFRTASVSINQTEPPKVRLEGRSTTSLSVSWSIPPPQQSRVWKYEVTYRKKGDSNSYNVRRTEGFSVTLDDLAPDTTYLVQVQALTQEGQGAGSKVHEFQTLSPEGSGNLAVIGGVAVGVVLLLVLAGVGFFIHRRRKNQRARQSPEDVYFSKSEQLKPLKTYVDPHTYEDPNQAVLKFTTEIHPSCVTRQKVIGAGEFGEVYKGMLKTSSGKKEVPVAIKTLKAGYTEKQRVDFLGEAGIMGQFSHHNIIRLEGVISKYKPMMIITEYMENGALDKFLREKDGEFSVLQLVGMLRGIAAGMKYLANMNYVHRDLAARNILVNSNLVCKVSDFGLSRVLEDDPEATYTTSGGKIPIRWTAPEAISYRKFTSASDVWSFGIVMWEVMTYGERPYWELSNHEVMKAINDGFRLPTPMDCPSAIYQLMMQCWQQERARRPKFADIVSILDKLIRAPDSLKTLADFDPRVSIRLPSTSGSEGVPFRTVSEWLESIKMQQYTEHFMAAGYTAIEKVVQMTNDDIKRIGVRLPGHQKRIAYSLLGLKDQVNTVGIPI
# T20 sequence (P52564 whole entry): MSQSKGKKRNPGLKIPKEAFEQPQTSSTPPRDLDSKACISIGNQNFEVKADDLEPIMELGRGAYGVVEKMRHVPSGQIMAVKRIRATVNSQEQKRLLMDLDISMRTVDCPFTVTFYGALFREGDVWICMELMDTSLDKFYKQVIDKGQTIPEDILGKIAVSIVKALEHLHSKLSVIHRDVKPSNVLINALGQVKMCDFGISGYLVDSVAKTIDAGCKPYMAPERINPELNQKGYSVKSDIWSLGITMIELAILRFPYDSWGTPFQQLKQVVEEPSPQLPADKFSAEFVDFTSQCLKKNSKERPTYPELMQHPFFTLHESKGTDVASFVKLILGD
structure (smiles),measurement,setting,value
"CCCCN1CCN(C(=N)c2cccc(NC(=O)Nc3ccc(S(=O)(=O)NCc4ccc(S(N)(=O)=O)cc4)cc3)c2)CC1 [SC81458, 4-(3-(3-((4-butylpiperazin-1-yl)(imino)methyl)phenyl)ureido)-N-(4-sulfamoylbenzyl) benzenesulfonamide]",remaining binding at 10 µM,ABL1(Y253F),92%
same,remaining binding at 10 µM,ALK,100%
same,remaining binding at 10 µM,ARK5,92%
same,remaining binding at 10 µM,ASK1,100%
same,remaining binding at 10 µM,BLK,100%
same,remaining binding at 10 µM,BMPR1b,85%
same,remaining binding at 10 µM,BRK,100%
same,remaining binding at 10 µM,BRSK2,100%
same,remaining binding at 10 µM,DAPK3,100%
same,remaining binding at 10 µM,[1],86%
same,remaining binding at 10 µM,EPHA2,99%
same,remaining binding at 10 µM,FLT3(N841I),100%
same,remaining binding at 10 µM,FRK,100%
same,remaining binding at 10 µM,IKK-epsilon,100%
same,remaining binding at 10 µM,KIT(L576P),66%
same,remaining binding at 10 µM,LATS1,82%
same,remaining binding at 10 µM,LCK,100%
same,remaining binding at 10 µM,MAP4K3,95%
same,remaining binding at 10 µM,MAP4K5,100%
same,remaining binding at 10 µM,MEK6,81%
same,remaining binding at 10 µM,MET(Y1235D),100%
same,remaining binding at 10 µM,MLCK,100%
same,remaining binding at 10 µM,PIK3CA(E545A),100%
same,remaining binding at 10 µM,PIK3CA(M1043I),100%
same,remaining binding at 10 µM,PRKG1,86%
same,remaining binding at 10 µM,RET,89%
same,remaining binding at 10 µM,RIOK1,75%
same,remaining binding at 10 µM,RIOK2,98%
same,remaining binding at 10 µM,SNARK,100%
same,remaining binding at 10 µM,TAOK3,100%
same,remaining binding at 10 µM,TRKa,100%
same,remaining binding at 10 µM,TYK2(JHdomain-catalytic),76%
same,remaining binding at 10 µM,YSK4,100%

# Source: article PMC5290327, “SC83288 is a clinical development candidate for the treatment of severe malaria” (Nature Communications, 2017)
